Values of other authors in patent US20200093158A1, “COMPOSITIONS AND COMBINATIONS FOR USE AS FOOD SUPPLEMENTS FOR ANIMALS” (OmniGen Research, LLC, priority 2014, published 2020).

What was measured:
larvae of common carp = details: 1.76 parts per million of NH3, after 24 hours
[1] = test system: turbot (Scophthalmus maximus) juveniles
[2] = 71.5 parts per million in diet for 8 weeks; 72 hours ammonia at 0.02, 0.2, 2 ppm (not at 20 ppm); vs control shrimp

Row | SMILES | mortality (larvae of common carp) [%] | physiological disturbances ([1]; adapted small turbot, up to 0.4-0.5 parts per million) | mortalities ([1]; turbot juveniles, 4-6 weeks, up to 0.4 parts per million unionized ammonia, 16.5-17.5° C., pH 7.92-8.03) | survival rates under ammonia exposure [2]
1 | N [NH3, ammonia] | 50 | no major physiological disturbances | no mortalities | 
2 | CC1=C(/C=C/C(C)=C/C=C/C(C)=C/C=C/C=C(C)/C=C/C=C(C)/C=C/C2=C(C)C(=O)[C@@H](O)CC2(C)C)C(C)(C)C[C@H](O)C1=O [astaxanthin] |  |  |  | higher
